ChEMBL document CHEMBL4808247 (Bioorg Med Chem, 2021)
In brackets after ≈: the same amount, converted by molar mass.

Assays:
Enterobacter cloacae [1] = assay: Antibacterial activity against Enterobacter cloacae IR32 producing class B beta-lactamase, NDM1 assessed as reduction in microbial growth incubated for 16 to 20 hrs by broth microdilution method; format: functional; details: time 16-20 hrs
Escherichia coli [2] = assay: Antibacterial activity against Escherichia coli NIHJ JC-2 assessed as reduction in microbial growth incubated for 16 to 20 hrs by broth microdilution method; format: functional; details: time 16-20 hrs
Enterobacter cloacae [3] = assay: Antibacterial activity against Enterobacter cloacae SR36276 producing class C beta-lactamase, AmpC assessed as reduction in microbial growth incubated for 16 to 20 hrs by broth microdilution method; format: functional; details: time 16-20 hrs
Klebsiella pneumoniae [4] = assay: Antibacterial activity against Klebsiella pneumoniae JMI:211 producing class A beta-lactamase, KPC-2 assessed as reduction in microbial growth incubated for 16 to 20 hrs by broth microdilution method; format: functional; details: time 16-20 hrs
Klebsiella pneumoniae [5] = assay: Antibacterial activity against Klebsiella pneumoniae PLE producing class D beta-lactamase, OXA-48 assessed as reduction in microbial growth incubated for 16 to 20 hrs by broth microdilution method; format: functional; details: time 16-20 hrs
Escherichia coli [6] = assay: Antibacterial activity against Escherichia coli SR34100 producing class A beta-lactamase, CTX-M-15 assessed as reduction in microbial growth incubated for 16 to 20 hrs by broth microdilution method; format: functional; details: time 16-20 hrs
[7] = Ratio of MIC for antibacterial activity against Escherichia coli BL21(DE3) transfected with pET9a vector harboring class C beta lactamase AmpC to MIC for antibacterial activity against Escherichia coli BL21(DE3); format: functional
Escherichia coli [8] = assay: Antibacterial activity against Escherichia coli BL21(DE3) transfected with pET9a empty vector incubated for 16 to 20 hrs by broth microdilution method; format: functional; details: time 16-20 hrs
[9] = Ratio of MIC for antibacterial activity against Escherichia coli BL21(DE3) transfected with pET9a vector harboring class B beta lactamase NDM-1 to MIC for antibacterial activity against Escherichia coli BL21(DE3); format: functional
Escherichia coli [10] = assay: Antibacterial activity against Escherichia coli BL21(DE3) transfected with pET9a vector harboring class A beta lactamase, CTX-M-15 incubated for 16 to 20 hrs by broth microdilution method; format: functional; details: time 16-20 hrs
Escherichia coli [11] = assay: Antibacterial activity against Escherichia coli BL21(DE3) transfected with pET9a vector harboring class C beta lactamase, AmpC incubated for 16 to 20 hrs by broth microdilution method; format: functional; details: time 16-20 hrs
Escherichia coli [12] = assay: Antibacterial activity against Escherichia coli BL21(DE3) transfected with pET9a vector harboring class D beta lactamase, OXA-48 incubated for 16 to 20 hrs by broth microdilution method; format: functional; details: time 16-20 hrs
Escherichia coli [13] = assay: Antibacterial activity against Escherichia coli BL21(DE3) transfected with pET9a vector harboring class B beta lactamase, NDM-1 incubated for 16 to 20 hrs by broth microdilution method; format: functional; details: time 16-20 hrs
Klebsiella pneumoniae [14] = assay: Antibacterial activity against Klebsiella pneumoniae ATCC13883 assessed as reduction in microbial growth incubated for 16 to 20 hrs by broth microdilution method; format: functional; details: time 16-20 hrs
[15] = Inhibition of CMY-2 in Escherichia coil BL21 assessed as inhibition of nitrocefin hydrolysis measured every 3 mins for 15 mins by UV spectrophotometer analysis; parameters: species or system Escherichia coli BL21
Enterobacterales [16] = assay: Antimicrobial activity against Enterobacterales producing OXA-48 assessed as reduction in microbial growth measured after 16 to 20 hrs by broth microdilution method; format: functional; details: time 16-20 hrs
Enterobacter cloacae [17] = assay: Antibacterial activity against Enterobacter cloacae 1,261,347 producing class A beta lactamase, PER-2 assessed as reduction in microbial growth incubated for 16 to 20 hrs by broth microdilution method; format: functional; details: time 16-20 hrs
Klebsiella pneumoniae [18] = assay: Antibacterial activity against Klebsiella pneumonia ATCC 13883 infected in cyclophosphamide-induced neutropenic Jcl:ICR mouse model assessed as log10 reduction in CFU at 3 mg/kg, sc administered at 2, 5 and 8 hrs after infection and measured at 10 hrs after infection; format: functional
Enterobacterales [19] = assay: Antimicrobial activity against Enterobacterales producing NDM assessed as reduction in microbial growth measured after 16 to 20 hrs by broth microdilution method; format: functional; details: time 16-20 hrs
Enterobacterales [20] = assay: Antimicrobial activity against Enterobacterales producing VIM assessed as reduction in microbial growth measured after 16 to 20 hrs by broth microdilution method; format: functional; details: time 16-20 hrs
Enterobacterales [21] = assay: Antimicrobial activity against Enterobacterales producing KPC assessed as reduction in microbial growth measured after 16 to 20 hrs by broth microdilution method; format: functional; details: time 16-20 hrs
Klebsiella pneumoniae [22] = assay: Antibacterial activity against Klebsiella pneumonia ATCC 13883 infected in cyclophosphamide-induced neutropenic Jcl:ICR mouse model assessed as log10 reduction in CFU at 10 mg/kg, sc administered at 2, 5 and 8 hrs after infection and measured at 10 hrs after infection; format: functional

## Nc1nc(/C(=N/OCC(=O)O)C(=O)N[C@@H]2C(=O)N3[C@@H]2[S@@+]([O-])C[C@@H]2CC(=O)O[C@@]23C(=O)O)ns1
Enterobacter cloacae [1]
  MIC: 2 µg/mL
Escherichia coli [2]
  MIC: 1 µg/mL
Enterobacter cloacae [3]
  MIC: 1 µg/mL
Klebsiella pneumoniae [4]
  MIC: 1 µg/mL
Klebsiella pneumoniae [5]
  MIC: 4 µg/mL
Escherichia coli [6]
  MIC: 8 µg/mL

## Nc1nc(/C(=N/OCC(=O)O)C(=O)N[C@@H]2C(=O)N3[C@@H]2SC[C@@H]2CC(=O)O[C@@]23C(=O)O)c(Cl)s1
Enterobacter cloacae [1]
  MIC: 2 µg/mL
Escherichia coli [2]
  MIC: 1 µg/mL
Enterobacter cloacae [3]
  MIC: 8 µg/mL
Klebsiella pneumoniae [4]
  MIC: 4 µg/mL
Klebsiella pneumoniae [5]
  MIC: 16 µg/mL
Escherichia coli [6]
  MIC: 4 µg/mL

## Nc1nc(/C(=N/OCC(=O)O)C(=O)N[C@@H]2C(=O)N3[C@@H]2SC[C@@H]2CC(=O)O[C@@]23C(=O)O)ns1
Enterobacter cloacae [1]
  MIC: 0.5 µg/mL
Escherichia coli [2]
  MIC: 0.125 µg/mL
Enterobacter cloacae [3]
  MIC: 4 µg/mL
Klebsiella pneumoniae [4]
  MIC: 0.125 µg/mL
Klebsiella pneumoniae [5]
  MIC: 1 µg/mL
Escherichia coli [6]
  MIC: 0.25 µg/mL

## CC(C)(O/N=C(\C(=O)N[C@H]1CON(C2(C(=O)O)CCC(=O)O2)C1=O)c1csc(N)n1)C(=O)O (stereo in doubt)
[7]
  Ratio: 32
Enterobacter cloacae [1]
  MIC: 1 µg/mL
Escherichia coli [8]
  MIC: 0.063 µg/mL (≈ 0.13 µM)
Escherichia coli [2]
  MIC: 0.25 µg/mL
Enterobacter cloacae [3]
  MIC: > 32 µg/mL
[9]
  Ratio: 4
Klebsiella pneumoniae [5]
  MIC: 1 µg/mL
Escherichia coli [6]
  MIC: 4 µg/mL
Escherichia coli [10]
  MIC: 0.063 µg/mL (≈ 0.13 µM)
Escherichia coli [11]
  MIC: 2 µg/mL (≈ 4.12 µM)
Escherichia coli [12]
  MIC: 0.063 µg/mL (≈ 0.13 µM)
Escherichia coli [13]
  MIC: 0.25 µg/mL (≈ 0.515 µM)

## Nc1nc(/C(=N/OCC(=O)O)C(=O)N[C@@H]2C(=O)N3[C@@H]2S(=O)(=O)C[C@@H]2CC(=O)O[C@@]23C(=O)O)cs1 (stereo in doubt)
Enterobacter cloacae [1]
  MIC: 0.25 µg/mL
Escherichia coli [2]
  MIC: 0.25 µg/mL
Enterobacter cloacae [3]
  MIC: 1 µg/mL
Klebsiella pneumoniae [4]
  MIC: 0.5 µg/mL
Klebsiella pneumoniae [5]
  MIC: 0.5 µg/mL
Escherichia coli [6]
  MIC: 1 µg/mL

## Nc1nc(/C(=N/OCC(=O)O)C(=O)N[C@@H]2C(=O)N3[C@@H]2[S@+]([O-])C[C@@H]2CC(=O)O[C@@]23C(=O)O)cs1 (stereo in doubt)
Enterobacter cloacae [1]
  MIC: 2 µg/mL
Escherichia coli [2]
  MIC: 0.25 µg/mL
Enterobacter cloacae [3]
  MIC: > 32 µg/mL
Klebsiella pneumoniae [4]
  MIC: 0.5 µg/mL
Klebsiella pneumoniae [5]
  MIC: 0.5 µg/mL
Escherichia coli [6]
  MIC: 1 µg/mL

## C[C@@H](O/N=C(\C(=O)N[C@@H]1C(=O)N2[C@@H]1SC[C@@H]1CC(=O)O[C@@]12C(=O)O)c1csc(N)n1)C(=O)O (stereo in doubt)
Enterobacter cloacae [1]
  MIC: 0.25 µg/mL
Escherichia coli [2]
  MIC: 0.125 µg/mL
Enterobacter cloacae [3]
  MIC: 16 µg/mL
Klebsiella pneumoniae [4]
  MIC: 0.5 µg/mL
Klebsiella pneumoniae [5]
  MIC: 1 µg/mL
Escherichia coli [6]
  MIC: 0.5 µg/mL

## Nc1nc(/C(=N/OCC(=O)O)C(=O)N[C@@H]2C(=O)N3[C@@H]2[S@@+]([O-])C[C@@H]2CC(=O)O[C@@]23C(=O)O)cs1 (stereo in doubt)
Klebsiella pneumoniae [14]
  MIC: 0.125 µg/mL
[15]
  Ki: > 60 µM
Enterobacterales [16]
  MIC50: 0.125 µg/mL
  MIC90: 0.25 µg/mL
Enterobacter cloacae [1]
  MIC: 0.063 µg/mL
Escherichia coli [2]
  MIC: 0.063 µg/mL
Enterobacter cloacae [3]
  MIC: 0.063 µg/mL
Klebsiella pneumoniae [4]
  MIC: 0.063 µg/mL
Enterobacter cloacae [17]
  MIC: 0.25 µg/mL
Klebsiella pneumoniae [18]
  Activity: 2.11 log10CFU
Klebsiella pneumoniae [5]
  MIC: 0.125 µg/mL
Escherichia coli [6]
  MIC: 0.125 µg/mL
Enterobacterales [19]
  MIC50: 0.25 µg/mL
  MIC90: 1 µg/mL
Enterobacterales [20]
  MIC50: 0.25 µg/mL
  MIC90: 1 µg/mL
Enterobacterales [21]
  MIC50: 0.25 µg/mL
  MIC90: 0.5 µg/mL
Klebsiella pneumoniae [22]
  Activity: 2.46 log10CFU
